In general, Ki refers to the dissociation constant of the complex between target and ligand, obtained from inhibition or displacement. A lower Ki goes with a stronger hold on the target. A word on the IC50: it is the midpoint of a concentration-inhibition curve. Read a low IC50 as greater potency.

Structures are written as SMILES.

Assay [1] addresses T1, human MAO-B (Homo sapiens, UniProt P27338).
T1 construct: purchased BD Biosciences Discovery Labware, Woburn Mass; (BD Supersomes Enzymes); host or cells: insect cells
T1 sequence (P27338 1-520): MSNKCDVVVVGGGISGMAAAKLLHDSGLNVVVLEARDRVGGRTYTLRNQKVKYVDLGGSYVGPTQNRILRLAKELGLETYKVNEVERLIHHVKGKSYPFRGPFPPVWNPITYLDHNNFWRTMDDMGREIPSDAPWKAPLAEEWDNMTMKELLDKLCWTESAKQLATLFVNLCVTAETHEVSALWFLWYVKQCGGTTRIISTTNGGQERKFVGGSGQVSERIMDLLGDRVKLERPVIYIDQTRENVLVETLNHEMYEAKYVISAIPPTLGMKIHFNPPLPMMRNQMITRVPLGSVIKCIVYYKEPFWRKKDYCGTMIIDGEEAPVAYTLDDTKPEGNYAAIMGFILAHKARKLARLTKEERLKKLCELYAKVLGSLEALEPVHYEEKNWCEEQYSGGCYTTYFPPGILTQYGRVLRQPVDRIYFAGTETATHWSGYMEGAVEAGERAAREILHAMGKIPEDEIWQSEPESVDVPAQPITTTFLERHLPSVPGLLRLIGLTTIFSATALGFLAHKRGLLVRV
Nature of the assay: Monoamine oxidase B functional assay (kynuramine deamination, fluorescence). In kind it is biochemical. The conditions noted are these: membrane fractions from insect cells expressing human MAO-B; kynuramine substrate. On the procedure: Functional assay: MAO-B containing membrane fractions prepared from insect cells expressing human MAO-B (BD Supersomes Enzymes, BD Biosciences Discovery Labware, Woburn Mass.) were used as a source of MAO-B. Assays were conducted in 96-well plates in a final volume of 200 μL. The assay buffer was 0.1 M potassium phosphate (pH 7.4). The assay system consisted of three mixes: a) inhibitor dilution mix, which was the assay buffer, b) substrate/buffer/control insect cell protein mix: 4× substrate-80 μM kynuramine and 4× control insect cell protein, and c) enzyme/buffer mix: 4× concentrate of MAO-B prepared in assay buffer. The final MAO-B concentration was 0.015 mg/mL. The final total, normalized protein concentration, using control insect protein, was 0.06 mg/mL. Test compounds were serial diluted 3-fold in the inhibitor dilution mix directly in the 96-well plate (total final volume of 100 μL). Fifty μL of the substrate/buffer mix was added to each well. The 96-well plate, containing test compound and MAO substrate (150 μL total volume), was preincubated to 37° C. The reaction was initiated with 50 μL of enzyme/buffer mix. […] Product formation was quantified by comparing the fluorescence emission of the samples to that of known amounts of authentic metabolite standard, 4-hydroxyquinoline, the product formed from kynuramine deamination. […]

In assay [2] the target is T1, human MAO-B. Nature of the assay: MAO-B radioligand binding assay ([3H]-DMAB or [3H] 5-Fluoro-2-(1-methyl-1H-indazol-5-yl)-oxazolo[5,4-b]pyridine). The conditions noted are these: membrane fractions from insect cells expressing human MAO-B; radioligand 8-10 nM. The protocol:
Radioligand binding assay: MAO-B containing membrane fractions prepared from insect cells expressing human MAO-B (BD Supersomes Enzymes, BD Biosciences Discovery Labware, Woburn Mass.) were used as a source of MAO-B. [^3H]-DMAB or [^3H] 5-Fluoro-2-(1-methyl-1H-indazol-5-yl)-oxazolo[5,4-b]pyridine were synthesized at a specific activity of ˜80 Ci/mmol. The final concentration of radioligand for tissue homogenate binding assay was 8-10 nM. MAO-B membrane fractions were diluted with phosphate buffered saline (PBS) to 0.25 mg/mL from original 5 mg/mL volume and 200 μl was used in assay for a final mass of 50 μg/assay tube. Unlabeled test compounds were dissolved in dimethylsulfoxide (DMSO) at 1 mM. Dilution of test compound to various concentrations was made with PBS containing 2% DMSO. Total binding was defined in the absence of competing compound, and non-displaceable binding was determined in the presence of 1 μM unlabeled self block. Compound dilutions (10×) were added into the assay tube (25 μL each per tube, separately) containing 200 μL diluted MAO-B membrane fraction, and the tubes were pre-incubated at room temperature for 10 minutes. […] Filters were punched into scintillation vials and counted in 2 mL Ultima Gold on Perkin Elmer Tri-Carb 2900TR for 1 minute. […]

Take `Cn1ccc2cc(-c3nc4ccc(F)nc4o3)cnc21`: in assay [1], the Ki was 18 nM.

`CN(C)c1ccc(-c2nc3ccc(F)nc3o2)cc1` gave an IC50 in assay [2] of 31 nM.

Turning to `Cn1ccc2cc(-c3nc4ccc(F)nc4s3)cnc21`, the IC50 in assay [2] came out at 3.7 nM.
